In ChEMBL document CHEMBL1201862, “PubChem BioAssay data set” (2004):
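All cell lines were grown in 96-well plates and treated with compound for 48 hours. GI50 marks 50% less growth.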 Active and inactive are the calls of the source. No stated cut-off is given here; in the data, active = GI50 up to about 1.1 µM and inactive = higher.

How the values were obtained:
Experiment in all cases: growth of human tumour cells (NCI), 48 h
A549 = test system: A549
DMS-114 = test system: DMS-114
DMS-273 = test system: DMS-273
EKVX = test system: EKVX
HCT-116 = test system: HCT-116
HL-60 = test system: HL-60
HOP-62 = test system: HOP-62
HT-29 = test system: HT-29
Malme-3M = test system: Malme-3M
NCI-H226 = test system: NCI-H226
NCI-H23 = test system: NCI-H23
NCI-H522 = test system: NCI-H522
OVCAR-5 = test system: OVCAR-5
SF-268 = test system: SF-268
SK-MEL-28 = test system: SK-MEL-28
UACC-257 = test system: UACC-257
UO-31 = test system: UO-31
ACHN = test system: ACHN
M14 = test system: M14
786-0 = test system: 786-0

## CC1(CO)C(O)CCC2(C)C1C(O)CC1CC3CC12CCC3(O)CO (stereo not given)
A549
  GI50: > 225 µM (inactive)
DMS-114
  GI50: > 225 µM (inactive)
DMS-273
  GI50: 104 µM (inactive)
EKVX
  GI50: > 205 µM (inactive)
HCT-116
  GI50: > 217 µM (inactive)
HL-60
  GI50: 102 µM (inactive)
HOP-62
  GI50: > 225 µM (inactive)
HT-29
  GI50: > 225 µM (inactive)
Malme-3M
  GI50: > 225 µM (inactive)
NCI-H226
  GI50: 116 µM (inactive)
NCI-H23
  GI50: > 225 µM (inactive)
NCI-H522
  GI50: > 225 µM (inactive)
OVCAR-5
  GI50: > 225 µM (inactive)
SF-268
  GI50: > 191 µM (inactive)
SK-MEL-28
  GI50: > 225 µM (inactive)
UACC-257
  GI50: > 225 µM (inactive)
UO-31
  GI50: > 217 µM (inactive)

## CCOCC(=O)N(C)c1cccc2c3c(n(C)c12)CCCCC3
A549
  GI50: > 100 µM (inactive)
DMS-114
  GI50: > 100 µM (inactive)
DMS-273
  GI50: > 31.6 µM (inactive)
EKVX
  GI50: > 100 µM (inactive)
HCT-116
  GI50: > 100 µM (inactive)
HL-60
  GI50: > 100 µM (inactive)
HOP-62
  GI50: > 100 µM (inactive)
HT-29
  GI50: > 100 µM (inactive)
Malme-3M
  GI50: > 100 µM (inactive)
NCI-H226
  GI50: > 100 µM (inactive)
NCI-H23
  GI50: > 100 µM (inactive)
NCI-H522
  GI50: > 100 µM (inactive)
OVCAR-5
  GI50: > 100 µM (inactive)
SF-268
  GI50: > 100 µM (inactive)
SK-MEL-28
  GI50: > 100 µM (inactive)
UACC-257
  GI50: 1 µM (active)

## Cc1cc(OCC(O)CO)ccc1Cl (stereo not given)
A549
  GI50: > 100 µM (inactive)
ACHN
  GI50: > 100 µM (inactive)
DMS-114
  GI50: > 100 µM (inactive)
DMS-273
  GI50: > 100 µM (inactive)
EKVX
  GI50: > 100 µM (inactive)
HCT-116
  GI50: > 100 µM (inactive)
HL-60
  GI50: > 100 µM (inactive)
HOP-62
  GI50: > 100 µM (inactive)
HT-29
  GI50: > 100 µM (inactive)
M14
  GI50: > 100 µM (inactive)
Malme-3M
  GI50: > 100 µM (inactive)
NCI-H226
  GI50: > 100 µM (inactive)
NCI-H23
  GI50: > 100 µM (inactive)
NCI-H522
  GI50: > 100 µM (inactive)
OVCAR-5
  GI50: > 100 µM (inactive)
SF-268
  GI50: > 100 µM (inactive)
SK-MEL-28
  GI50: > 100 µM (inactive)
UACC-257
  GI50: > 100 µM (inactive)
UO-31
  GI50: > 100 µM (inactive)

## COC(=N)C(C)C
A549
  GI50: > 100 µM (inactive)
ACHN
  GI50: > 100 µM (inactive)
DMS-114
  GI50: > 100 µM (inactive)
DMS-273
  GI50: > 100 µM (inactive)
HCT-116
  GI50: > 100 µM (inactive)
HL-60
  GI50: > 100 µM (inactive)
HOP-62
  GI50: > 100 µM (inactive)
HT-29
  GI50: > 100 µM (inactive)
M14
  GI50: > 100 µM (inactive)
Malme-3M
  GI50: > 100 µM (inactive)
NCI-H226
  GI50: > 100 µM (inactive)
NCI-H23
  GI50: > 100 µM (inactive)
NCI-H522
  GI50: > 100 µM (inactive)
OVCAR-5
  GI50: > 100 µM (inactive)
SF-268
  GI50: > 100 µM (inactive)
SK-MEL-28
  GI50: > 100 µM (inactive)
UACC-257
  GI50: > 100 µM (inactive)
UO-31
  GI50: > 100 µM (inactive)

## [N-]=[N+]=NC1(Cc2ccccc2)C(=O)Nc2ccccc2C1=O (stereo not given)
786-0
  GI50: > 100 µM (inactive)
A549
  GI50: > 100 µM (inactive)
ACHN
  GI50: > 100 µM (inactive)
DMS-114
  GI50: > 100 µM (inactive)
DMS-273
  GI50: > 100 µM (inactive)
EKVX
  GI50: > 100 µM (inactive)
HCT-116
  GI50: > 100 µM (inactive)
HL-60
  GI50: > 100 µM (inactive)
HOP-62
  GI50: > 100 µM (inactive)
HT-29
  GI50: > 100 µM (inactive)
M14
  GI50: > 100 µM (inactive)
Malme-3M
  GI50: > 100 µM (inactive)
NCI-H23
  GI50: > 100 µM (inactive)
NCI-H522
  GI50: 87.1 µM (inactive)
OVCAR-5
  GI50: > 100 µM (inactive)
SF-268
  GI50: > 100 µM (inactive)
SK-MEL-28
  GI50: > 100 µM (inactive)
UACC-257
  GI50: > 100 µM (inactive)
UO-31
  GI50: 39.6 µM (inactive)

## O=C1C=C2SC3C[C@@]24CC1(O)[N+]1=c2c4c(c(O)c4c2=C(C=N4)CC1)N3
A549
  GI50: 2 µM (inactive)
DMS-114
  GI50: 0.219 µM (active)
DMS-273
  GI50: 1.42 µM (inactive)
EKVX
  GI50: 4.13 µM (inactive)
HCT-116
  GI50: 0.217 µM (active)
HL-60
  GI50: 0.217 µM (active)
HOP-62
  GI50: 1.82 µM (inactive)
HT-29
  GI50: 0.299 µM (active)
NCI-H226
  GI50: 1.78 µM (inactive)
NCI-H23
  GI50: 1.3 µM (inactive)
NCI-H522
  GI50: 0.296 µM (active)
OVCAR-5
  GI50: 2.33 µM (inactive)
SF-268
  GI50: 1.01 µM (active)
SK-MEL-28
  GI50: 1.64 µM (inactive)
UACC-257
  GI50: 1.16 µM (inactive)
UO-31
  GI50: 1.89 µM (inactive)

## COc1cc(CCc2ccc(N)cc2)cc(OC)c1OC
786-0
  GI50: > 92.7 µM (inactive)
A549
  GI50: 51.6 µM (inactive)
ACHN
  GI50: > 100 µM (inactive)
DMS-114
  GI50: 34.3 µM (inactive)
DMS-273
  GI50: 37.9 µM (inactive)
EKVX
  GI50: > 66.5 µM (inactive)
HCT-116
  GI50: 50.9 µM (inactive)
HL-60
  GI50: > 48 µM (inactive)
HOP-62
  GI50: > 42.7 µM (inactive)
HT-29
  GI50: 41.5 µM (inactive)
M14
  GI50: 54.6 µM (inactive)
Malme-3M
  GI50: 28.2 µM (inactive)
NCI-H226
  GI50: > 76.2 µM (inactive)
NCI-H23
  GI50: 92.3 µM (inactive)
NCI-H522
  GI50: 31.5 µM (inactive)
OVCAR-5
  GI50: > 100 µM (inactive)
SF-268
  GI50: > 69.3 µM (inactive)
SK-MEL-28
  GI50: 46 µM (inactive)
UACC-257
  GI50: > 94.4 µM (inactive)
UO-31
  GI50: > 45.3 µM (inactive)
